Paper PMC9450471 (Computational Biology and Chemistry, 2022)
“And” between values parts separate entries of the source, which are not always exact repeats. Equal values may be shown once. Read-outs that look alike come from different tables or passages of the source.

Tested on: SARS-CoV-2 (Omicron variant, B.1.1.529/BA.5 sublineage)
Type: cell-based
Conditions: for time at which utmost effectiveness against the Omicron variant is reached: after administration/treatment starter

Row | Structure (SMILES) | 100% CPE Inhibitory Concentration (CPEIC100) | other results
1 | CC(C)C(=O)OC[C@H]1O[C@@H](n2ccc(NO)nc2=O)[C@H](O)[C@@H]1O [Molnupiravir] | 6.19 ± 0.275 µM | 100% CPE Inhibitory Concentration (CPEIC100) (listed as molnupiravir): 6.19 µM
2 | CC(C)=CCNc1ncnc2c1ncn2[C@@H]1O[C@H](CO)[C@@H](O)[C@H]1O [Riboprine, N ^6-(2-Isopentenyl)adenosine] | 1.11 µM and 1.11 ± 0.047 µM | time at which utmost effectiveness against the Omicron variant is reached: 3.5 to 9.5 h
3 | Nc1ncnc2c1ncn2[C@@H]1O[C@H](CO)[C@@H](O)[C@@H]1O [Vidarabine, Arabinosyladenine] | 8.042 ± 0.288 µM | –
4 | CCC(CC)COC(=O)[C@H](C)N[P@](=O)(OC[C@H]1O[C@@](C#N)(c2ccc3c(N)ncnn23)[C@H](O)[C@@H]1O)Oc1ccccc1 [Remdesivir] | 5.883 ± 0.255 µM | 100% CPE Inhibitory Concentration (CPEIC100) (listed as remdesivir): 5.883 µM
5 | O=c1[nH]cnc2c([C@@H]3N[C@H](CO)[C@@H](O)[C@H]3O)c[nH]c12 [Forodesine] | 1.6 ± 0.065 µM | time at which utmost effectiveness against the Omicron variant is reached: 3.5 to 9.5 h; 100% CPE Inhibitory Concentration (CPEIC100) (listed as forodesine): 1.6 µM
6 | COc1nc(N)nc2c1ncn2[C@@H]1O[C@H](CO)[C@@H](O)[C@@H]1O [Nelarabine] | 4.105 ± 0.149 µM | –
7 | CC(C)Nc1nc2cc(Cl)c(Cl)cc2n1[C@H]1O[C@@H](CO)[C@H](O)[C@@H]1O [Maribavir] | 7.986 ± 0.277 µM | –
8 | OC[C@H]1O[C@@H](n2cnc3c(N[C@@H]4CCOC4)ncnc32)[C@H](O)[C@@H]1O [Tecadenoson] | 7.645 ± 0.24 µM | –
